The inhibition is the change of the read-out against control, counted positive when it falls.

This assay deals with Jak2 (human Jak2 kinase domain, amino acids 808-1132) (Homo sapiens (Human), UniProt O60674). Briefly: Jak2 inhibition assay (Omnia kinase assay). Format: biochemical. Conditions: read-out: Jak2 Enzyme (% inhibition at 1000 nM), Table 1; 1000 nM test compound.
Jak2 (human Jak2 kinase domain, amino acids 808-1132), sequence (O60674 808-1132): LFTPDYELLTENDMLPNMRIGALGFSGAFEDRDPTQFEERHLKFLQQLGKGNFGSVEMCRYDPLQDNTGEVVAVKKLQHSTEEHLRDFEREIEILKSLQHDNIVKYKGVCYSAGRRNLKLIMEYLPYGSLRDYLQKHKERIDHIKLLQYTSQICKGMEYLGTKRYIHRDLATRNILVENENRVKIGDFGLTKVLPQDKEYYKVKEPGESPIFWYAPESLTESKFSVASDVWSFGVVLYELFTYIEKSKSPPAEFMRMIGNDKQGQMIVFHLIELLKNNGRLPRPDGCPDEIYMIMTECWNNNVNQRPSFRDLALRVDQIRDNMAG
Consider `CC1(C)OCC(COc2ccc(F)cc2[C@H]2CCCN2c2ccn3ncc(C(=O)NC4CC4)c3n2)O1` (stereo partly drawn) [Example 204, N-cyclopropyl-5-((2R)-2-(2-((2,2-dimethyl-1,3-dioxolan-4-yl)methoxy)-5-fluorophenyl)pyrrolidin-1-yl)pyrazolo[1,5-a]pyrimidine-3-carboxamide], for which the inhibition at 1 µM stood at 37%. Under `CC1(C)OCC(COc2ccc(F)cc2[C@H]2CCCN2c2ccn3ncc(C(N)=O)c3n2)O1` (stereo partly drawn) [Example 205, 5-((2R)-2-(2-((2,2-dimethyl-1,3-dioxolan-4-yl)methoxy)-5-fluorophenyl)pyrrolidin-1-yl)pyrazolo[1,5-a]pyrimidine-3-carboxamide] stands 7.2%; under `CC1(C)OCC(COc2cc(F)cc([C@H]3CCCN3c3ccn4ncc(C(=O)NC5CC5)c4n3)c2)O1` (stereo partly drawn) [Example 206, N-cyclopropyl-5-((2R)-2-(3-((2,2-dimethyl-1,3-dioxolan-4-yl)methoxy)-5-fluorophenyl)pyrrolidin-1-yl)pyrazolo[1,5-a]pyrimidine-3-carboxamide], 12.6%; under `O=C(NC1CC1)c1cnn2ccc(N3CCC[C@@H]3c3cc(F)cc(OCC(O)CO)c3)nc12` (stereo partly drawn) [Example 208, N-cyclopropyl-5-((2R)-2-(3-(2,3-dihydroxypropoxy)-5-fluorophenyl)pyrrolidin-1-yl)pyrazolo[1,5-a]pyrimidine-3-carboxamide], 21.2%. Under `NC(=O)c1cnn2ccc(N3CCC[C@@H]3c3cc(F)cc(OCC(O)CO)c3)nc12` (stereo partly drawn) [Example 209, 5-((2R)-2-(3-(2,3-dihydroxypropoxy)-5-fluorophenyl)pyrrolidin-1-yl)pyrazolo[1,5-a]pyrimidine-3-carboxamide] stands 5.4%; under `O=C(NC1CC1)c1cnn2ccc(N3CCC[C@@H]3c3cc(F)ccc3OCC(O)CO)nc12` (stereo partly drawn) [Example 210, N-cyclopropyl-5-((2R)-2-(2-(2,3-dihydroxypropoxy)-5-fluorophenyl)pyrrolidin-1-yl)pyrazolo[1,5-a]pyrimidine-3-carboxamide], 32.3%. Under `C[C@@H](NC(=O)c1cnn2ccc(N3[C@H](CO)CC[C@@H]3c3cncc(F)c3)nc12)C(F)(F)F` [Example 212, 5-((2R,5S)-2-(5-fluoropyridin-3-yl)-5-(hydroxymethyl)pyrrolidin-1-yl)-N—((R)-1,1,1-trifluoropropan-2-yl)pyrazolo[1,5-a]pyrimidine-3-carboxamide] stands 14.2%; under `C[C@H](NC(=O)c1cnn2ccc(N3[C@H](CO)CC[C@@H]3c3cncc(F)c3)nc12)C(F)(F)F` [Example 213, 5-((2R,5S)-2-(5-fluoropyridin-3-yl)-5-(hydroxymethyl)pyrrolidin-1-yl)-N—((S)-1,1,1-trifluoropropan-2-yl)pyrazolo[1,5-a]pyrimidine-3-carboxamide], 21.9%. As for `CC1(NC(=O)c2cnn3ccc(N4[C@H](CO)CC[C@@H]4c4cncc(F)c4)nc23)CC1` [Example 214, 5-((2R,5S)-2-(5-fluoropyridin-3-yl)-5-(hydroxymethyl)pyrrolidin-1-yl)-N-(1-methylcyclopropyl)pyrazolo[1,5-a]pyrimidine-3-carboxamide], the inhibition at 1 µM was found to be 29.7%.

With `CC(C)NC(=O)c1cnn2ccc(N3[C@H](CO)CC[C@@H]3c3cncc(F)c3)nc12` [Example 215, 5-((2R,5S)-2-(5-fluoropyridin-3-yl)-5-(hydroxymethyl)pyrrolidin-1-yl)-N-isopropylpyrazolo[1,5-a]pyrimidine-3-carboxamide], the inhibition at 1 µM was 28.3%.

`C[C@H](NC(=O)c1cnn2ccc(N3C[C@@H](O)C[C@@H]3c3cccc(F)c3)nc12)C(F)(F)F` [Example 216, 5-((2R,4S)-2-(3-fluorophenyl)-4-hydroxypyrrolidin-1-yl)-N—((S)-1,1,1-trifluoropropan-2-yl)pyrazolo[1,5-a]pyrimidine-3-carboxamide]: the inhibition at 1 µM came out at 54%.

As to `CC(C)NC(=O)c1cnn2ccc(N3C[C@@H](O)C[C@@H]3c3cccc(F)c3)nc12` [Example 217, 5-((2R,4S)-2-(3-fluorophenyl)-4-hydroxypyrrolidin-1-yl)-N-isopropylpyrazolo[1,5-a]pyrimidine-3-carboxamide], the inhibition at 1 µM is 61.7%.

`CNC(=O)c1cnn2ccc(N3C[C@@H](O)C[C@@H]3c3cccc(F)c3)nc12` [Example 218, 5-((2R,4S)-2-(3-fluorophenyl)-4-hydroxypyrrolidin-1-yl)-N-methylpyrazolo[1,5-a]pyrimidine-3-carboxamide]: the inhibition at 1 µM came out at 24.6%. As for `CC(C)NC(=O)c1cnn2ccc(N3[C@@H](c4cncc(F)c4)CC[C@@]3(C)CO)nc12` [Example 219, 5-((2 S, 5R)-5-(5-fluoropyridin-3-yl)-2-(hydroxymethyl)-2-methylpyrrolidin-1-yl)-N-isopropylpyrazolo[1,5-a]pyrimidine-3-carboxamide], the figure is 25.5%; as for `C[C@H](NC(=O)c1cnn2ccc(N3[C@@H](c4cncc(F)c4)CC[C@@]3(C)CO)nc12)C(F)(F)F` [Example 220, 5-((2S,5R)-5-(5-fluoropyridin-3-yl)-2-(hydroxymethyl)-2-methylpyrrolidin-1-yl)-N—((S)-1,1,1-trifluoropropan-2-yl)pyrazolo[1,5-a]pyrimidine-3-carboxamide], 15.2%; as for `Nc1ncc(F)cc1[C@H]1CCCN1c1ccn2ncc(C(=O)N3CCC3)c2n1` [Example 221, (R)-(5-(2-(2-amino-5-fluoropyridin-3-yl)pyrrolidin-1-yl)pyrazolo[1,5-a]pyrimidin-3-yl)(azetidin-1-yl)methanone], -1.2%.

For `O=C(NOCCO)c1cnn2ccc(N3CCC[C@@H]3c3cc(F)cnc3Cl)nc12` [Example 225, (R)-5-(2-(2-chloro-5-fluoropyridin-3-yl)pyrrolidin-1-yl)-N-(2-hydroxyethoxy)pyrazolo[1,5-a]pyrimidine-3-carboxamide], the inhibition at 1 µM turned out to be 2.7%. Under `Cn1cc(F)cc([C@H]2CCCN2c2ccn3ncc(C(=O)NC(C)(C)C)c3n2)c1=O` [Example 226, (R)—N-tert-butyl-5-(2-(5-fluoro-1-methyl-2-oxo-1,2-dihydropyridin-3-yl)pyrrolidin-1-yl)pyrazolo[1,5-a]pyrimidine-3-carboxamide] stands 100%.

As to `CC(C)NC(=O)c1cnn2ccc(N3CCC[C@@H]3c3cc(F)cn(C)c3=O)nc12` [Example 227, (R)-5-(2-(5-fluoro-1-methyl-2-oxo-1,2-dihydropyridin-3-yl)pyrrolidin-1-yl)-N-isopropylpyrazolo[1,5-a]pyrimidine-3-carboxamide], the inhibition at 1 µM amounted to 62.8%. As for `Cn1cc(F)cc([C@H]2CCCN2c2ccn3ncc(C(=O)NC4CCC4)c3n2)c1=O` [Example 230, (R)-N-cyclobutyl-5-(2-(5-fluoro-1-methyl-2-oxo-1,2-dihydropyridin-3-yl)pyrrolidin-1-yl)pyrazolo[1,5-a]pyrimidine-3-carboxamide], the figure is 53.3%; as for `Cn1cc(F)cc([C@H]2CCCN2c2ccn3ncc(C(=O)Nc4cccnc4)c3n2)c1=O` [Example 231, (R)-5-(2-(5-fluoro-1-methyl-2-oxo-1,2-dihydropyridin-3-yl)pyrrolidin-1-yl)-N-(pyridin-3-yl)pyrazolo[1,5-a]pyrimidine-3-carboxamide], 26.6%. Under `Cn1cc(F)cc([C@H]2CCCN2c2ccn3ncc(C(=O)NCC4CC4)c3n2)c1=O` [Example 232, (R)-N-(cyclopropylmethyl)-5-(2-(5-fluoro-1-methyl-oxo-1,2-dihydropyridin-3-yl)pyrrolidin-1-yl)pyrazolo[1,5-a]pyrimidine-3-carboxamide] stands 31.9%; under `Cn1cc(F)cc([C@H]2CCCN2c2ccn3ncc(C(=O)N[C@H](CO)C(C)(C)C)c3n2)c1=O` [Example 233, 5-((R)-2-(5-fluoro-1-methyl-2-oxo-1,2-dihydropyridin-3-yl)pyrrolidin-1-yl)-N-((S)-1-hydroxy-3,3-dimethylbutan-2-yl)pyrazolo[1,5-a]pyrimidine-3-carboxamide], 6.7%; under `Cn1cc(F)cc([C@H]2CCCN2c2ccn3ncc(C(=O)N[C@@H]4CCCC[C@H]4O)c3n2)c1=O` [Example 234, 5-((R)-2-(5-fluoro-1-methyl-2-oxo-1,2-dihydropyridin-3-yl)pyrrolidin-1-yl)-N-((1R,2R)-2-hydroxycyclohexyl)pyrazolo[1,5-a]pyrimidine-3-carboxamide], 5.3%. Under `C[C@@H](NC(=O)c1cnn2ccc(N3CCC[C@@H]3c3cc(F)cn(C)c3=O)nc12)C1CC1` [Example 235, N-((R)-1-cyclopropylethyl)-5-((R)-2-(5-fluoro-1-methyl-2-oxo-1,2-dihydropyridin-3-yl)pyrrolidin-1-yl)pyrazolo[1,5-a]pyrimidine-3-carboxamide] stands 73.1%. Consider `C[C@H](NC(=O)c1cnn2ccc(N3CCC[C@@H]3c3cc(F)cn(C)c3=O)nc12)C1CC1` [Example 236, N-((S)-1-cyclopropylethyl)-5-((R)-2-(5-fluoro-1-methyl-2-oxo-1,2-dihydropyridin-3-yl)pyrrolidin-1-yl)pyrazolo[1,5-a]pyrimidine-3-carboxamide], for which the inhibition at 1 µM is 69.1%.

Consider `Cn1cc(F)cc([C@H]2CCCN2c2ccn3ncc(C(=O)NC4(C)CC4)c3n2)c1=O` [Example 237, (R)-5-(2-(5-fluoro-1-methyl-2-oxo-1,2-dihydropyridin-3-yl)pyrrolidin-1-yl)-N-(1-methylcyclopropyl)pyrazolo[1,5-a]pyrimidine-3-carboxamide], for which the inhibition at 1 µM was 51.9%. As for `Cn1cc(F)cc([C@H]2CCCN2c2ccn3ncc(C(=O)N[C@H]4CC[C@H](O)CC4)c3n2)c1=O` [Example 238, 5-((R)-2-(5-fluoro-1-methyl-2-oxo-1,2-dihydropyridin-3-yl)pyrrolidin-1-yl)-N-((trans)-4-hydroxycyclohexyl)pyrazolo[1,5-a]pyrimidine-3-carboxamide], the figure is 58.9%.
